# Experimental data: article PMC11239830, “Synthetic macrolides overcoming MLSBK-resistant pathogens” (Cell Discovery, 2024)
# Like-named read-outs stand apart in the source and are kept apart here.
# Key:
# Test in all cases: MIC, broth microdilution
# [1] = system: H. influenzae; type: cell-based, Haemophilus influenzae
# Experimental: (§1) MICs were determined by the microdilution method according to the Clinical and Laboratory Standards Institute guidelines. […] Finally, the 96-well plates were incubated at 37 °C for 16–20 h to observe and record the results. […] The assay for MICs was replicated at least three times.
# [2] = system: M. catarrhalis; type: cell-based, Moraxella catarrhalis; details: M. catarrhalis 13L332, Ery-S
# Experimental: MICs were determined by the microdilution method according to the Clinical and Laboratory Standards Institute guidelines. Briefly, the stock solution of compounds and the reference antibiotics were diluted 2-fold in sterile 96-well plates with cation-adjusted Mueller-Hinton broth, and mixed with CAMHB-containing bacteria to give a final inoculum of 5 × 10^5 CFU/mL for broth microdilution experiments. […] Finally, the 96-well plates were incubated at 37 °C for 16–20 h to observe and record the results. The lowest concentration at which no bacterial growth could be observed visually was identified as the MICs of the compounds. The assay for MICs was replicated at least three times.
# [3] = system: S. pneumoniae; type: cell-based, Streptococcus pneumoniae
# Experimental: as §1
# [4] = system: S. pyogenes; type: cell-based, Streptococcus pyogenes; details: S. pyogenes 12-206, c-ermTR
# Experimental: as §1
# [5] = system: S. aureus; type: cell-based, Staphylococcus aureus
# Experimental: as §1
# [6] = Haemophilus influenzae, ATCC49247, H. influenzae ATCC49247, Azi-S, read-out: MIC
# [7] = Moraxella catarrhalis, read-out: MIC
# [8] = Streptococcus pneumoniae, ATCC49619, S. pneumoniae ATCC49619, Ery-S, read-out: MIC
# [9] = Streptococcus pneumoniae, S. pneumoniae 05O173, c-ermB, mef, read-out: MIC
# [10] = Streptococcus pneumoniae, S. pneumoniae 07P390, c-ermB, read-out: MIC
# [11] = Streptococcus pyogenes, read-out: MIC
# [12] = Staphylococcus aureus, S. aureus 15B196, c-ermB, read-out: MIC
# [13] = Staphylococcus aureus, S. aureus PU32, i-ermA, read-out: MIC
# [14] = Streptococcus pneumoniae, S. pneumoniae PU09, mef, read-out: MIC
compound,measurement,setting,value
CC[C@H]1OC(=O)[C@H](C)[C@@H](OC(=O)NCCCCOCCC#Cc2ccc3c(=O)c(C(=O)O)cn(C)c3c2)[C@H](C)[C@@H](O[C@@H]2O[C@H](C)C[C@H](N(C)C)[C@H]2O)[C@](C)(OC)C[C@@H](C)C(=O)[C@H](C)[C@H]2NC(=O)O[C@@]21C [96g],MIC,[1]; [6],2 µg/mL
same,MIC,[2]; [7],0.5 µg/mL
same,MIC,[3]; [8],≤ 0.008 µg/mL
same,MIC,[3]; [9],8 µg/mL
same,MIC,[3]; [10],0.25 µg/mL
same,MIC,[4]; [11],0.5 µg/mL
CC[C@H]1OC(=O)[C@H](C)[C@@H](OC(=O)NCCCCCCCCc2ccc3c(=O)c(C(=O)O)cn(C)c3c2)[C@H](C)[C@@H](O[C@@H]2O[C@H](C)C[C@H](N(C)C)[C@H]2O)[C@](C)(O)C[C@@H](C)CN(C)[C@H](C)[C@@H](O)[C@]1(C)O [107g],MIC,"[1]; H. influenzae ATCC49247, Azi-S",8 µg/mL
same,MIC,[2],1 µg/mL
same,MIC,"[3]; S. pneumoniae 05O173, c-ermB, mef",128 µg/mL
same,MIC,"[3]; S. pneumoniae 07P390, c-ermB",4 µg/mL
same,MIC,"[3]; S. pneumoniae ATCC49619, Ery-S",0.25 µg/mL
same,MIC,[4],8 µg/mL
CC[C@H]1OC(=O)[C@H](C)[C@@H](OC(=O)NCCCOCCC#Cc2ccc3c(=O)c(C(=O)O)cn(C4CC4)c3c2)[C@H](C)[C@@H](O[C@@H]2O[C@H](C)C[C@H](N(C)C)[C@H]2O)[C@](C)(OC)C[C@@H](C)C(=O)[C@H](C)[C@H]2NC(=O)O[C@@]21C [95c],MIC,[1]; [6],2 µg/mL
same,MIC,[2]; [7],0.5 µg/mL
same,MIC,[3]; [8],0.03 µg/mL
same,MIC,[3]; [9],4 µg/mL
same,MIC,[3]; [10],0.25 µg/mL
same,MIC,[4]; [11],0.5 µg/mL
CC[C@H]1OC(=O)[C@H](C)[C@@H](OC(=O)NCCCCCCC#Cc2ccc3cc(C(=O)O)cnc3c2)[C@H](C)[C@@H](O[C@@H]2O[C@H](C)C[C@H](N(C)C)[C@H]2O)[C@](C)(OC)C[C@@H](C)C(=O)[C@H](C)[C@H]2NC(=O)O[C@@]21C [88j],MIC,[1]; [6],128 µg/mL
same,MIC,[5]; [12],> 256 µg/mL
same,MIC,[5]; [13],8 µg/mL
same,MIC,[3]; [8],0.5 µg/mL
same,MIC,[3]; [10],> 256 µg/mL
same,MIC,[3]; [14],1 µg/mL
same,MIC,[4]; [11],128 µg/mL
CC[C@H]1OC(=O)[C@H](C)[C@@H](OC(=O)NCCCCCC#Cc2ccc3c(c2)c(=O)c(C(=O)O)cn3C2CC2)[C@H](C)[C@@H](O[C@@H]2O[C@H](C)C[C@H](N(C)C)[C@H]2O)[C@](C)(O)C[C@@H](C)CN(C)[C@H](C)[C@H]2OC(=O)O[C@@]21C [110a],MIC,"[1]; H. influenzae ATCC49247, Azi-S",32 µg/mL
same,MIC,"[5]; S. aureus 15B196, c-ermB",256 µg/mL
same,MIC,"[5]; S. aureus PU32, i-ermA",16 µg/mL
same,MIC,"[3]; S. pneumoniae 07P390, c-ermB",256 µg/mL
same,MIC,"[3]; S. pneumoniae ATCC49619, Ery-S",1 µg/mL
same,MIC,"[3]; S. pneumoniae PU09, mef",2 µg/mL
same,MIC,[4],512 µg/mL
CC[C@H]1OC(=O)[C@H](C)[C@@H](OC(=O)NCCCCCCc2ccc3c(c2)c(=O)c(C(N)=O)cn3C2CC2)[C@H](C)[C@@H](O[C@@H]2O[C@H](C)C[C@H](N(C)C)[C@H]2O)[C@](C)(OC)C[C@@H](C)C(=NOC)[C@H](C)[C@H]2OC(=O)O[C@@]21C [60b],MIC,"[1]; H. influenzae ATCC49247, Azi-S",> 256 µg/mL
same,MIC,"[5]; S. aureus 15B196, c-ermB",> 256 µg/mL
same,MIC,"[5]; S. aureus PU32, i-ermA",128 µg/mL
same,MIC,"[3]; S. pneumoniae 07P390, c-ermB",32 µg/mL
same,MIC,"[3]; S. pneumoniae ATCC49619, Ery-S",0.25 µg/mL
same,MIC,"[3]; S. pneumoniae PU09, mef",1 µg/mL
same,MIC,[4],32 µg/mL
CCC1OC(=O)C(C)C(OC(=O)NCCCCCC#Cc2ccc3c(=O)c(C(=O)O)cn(C4CC4)c3c2)C(C)C(OC2OC(C)CC(N(C)C)C2O)C(C)(OC)CC(C)C(=NOC)C(C)C2OC(=O)OC12C (stereo not shown) [57c],MIC,[1]; [6],8 µg/mL
same,MIC,[5]; [12],16 µg/mL
same,MIC,[5]; [13],4 µg/mL
same,MIC,[3]; [8],≤ 0.008 µg/mL
same,MIC,[3]; [10],0.5 µg/mL
same,MIC,[3]; [14],0.06 µg/mL
same,MIC,[4]; [11],1 µg/mL
